Test results published in US20060235076A1, “Medicinal composition for treating infection with drug-resistant staphylococcus aureus” (priority 2003, published 2006).
Read-outs that look alike come from different tables or passages of the source.

Legend:
Format in all cases: cell-based, Staphylococcus aureus
MRSA and MSSA [1] = assay: Antibacterial activity of gallic acid, various gallates and multivalent phenol derivatives alone (agar plate dilution method, MIC); conditions: Staphylococcus aureus; for MIC: read-out: MIC alone
Protocol: (§1) According to the agar plate dilution method defined by Japan Society of Chemotherapy, MIC (Minimum inhibitory concentration) was determined. CAMHA was prepared by adding 50 mg/l of Ca-ion, 25 mg/l of Mg-ion, and 2% of NaCl to Mueller-Hinton II Agar (MHA), and it was used as a medium for use in the measurement of sensitivity. The bacterial liquid was incubated at 37° C. overnight and diluted to 10^6 CFU/ml with saline.
MIC for gallic acid, various gallates and multivalent phenol derivatives alone with MRSA and MSSA were determined as described in experiment 2.

[2] = tested on: MRSA COL and MRSA Strain No. 5; assay: Potentiating effect of various gallates for antibacterial activity of oxacillin (MIC by broth microdilution method and FIC); conditions: for FIC value: combination with oxacillin; for antibacterial activity when used alone: COL Strain and Strain No. 5
Protocol: According to the broth microdilution method defined by Japan Society of Chemotherapy, MIC was determined. CAMHA was prepared by adding 50 mg/l of Ca-ion, 25 mg/l of Mg-ion, and 2% of NaCl to MHB (Mueller-Hinton Broth), and it was used as a medium for use in the measurement of sensitivity. In 96-well microplates 100 μl of the medium for use in the measurement of sensitivity containing drugs was dispensed. The bacterial liquid was incubated at 37° C. overnight, diluted with saline and added to the plate so that the final concentration of the bacteria was 5×10^5 CFU/well. […] FIC (fractional inhibitory concentration) was calculated from the result and the potency of the effect of the combination use was evaluated.

MRSA and MSSA [3] = assay: Enhancing activity for the antibacterial activity of oxacillin by various gallates (agar plate dilution method, oxacillin MIC); conditions: Staphylococcus aureus, oxacillin alone
Protocol: as §1

MRSA = assay: Potentiating effect of galloyl quinic acid derivatives for the antibacterial activity of oxacillin (agar plate dilution method, MIC); conditions: Staphylococcus aureus, read-out: Oxacillin MIC
Protocol: as §1
It was confirmed that the known substances shown below were contained in “Tara” and their MICs were determined as described in example 2 with respect to the effects of the combination use with oxacillin

CCCOC(=O)c1cc(O)c(O)c(O)c1 [Propyl gallate, n-propyl gallate]
125 µg/mL: MIC (MRSA and MSSA [1]; ATCC 6538 / MRSA / MSSA, ATCC6538) | MIC (MRSA and MSSA [1]; COL) | MIC (MRSA and MSSA [1]; MRSA #1) | MIC (MRSA and MSSA [1]; MRSA #3) | MIC (MRSA and MSSA [1]; MRSA #4) | MIC (MRSA and MSSA [1]; MRSA #5) | MIC (MRSA and MSSA [1]; MRSA #7) | MIC (MRSA and MSSA [1]; MRSA #8) | MIC (MRSA and MSSA [1]; MRSA #12) | MIC (MRSA and MSSA [1]; MRSA #16) | MIC (MRSA and MSSA [1]; MRSA #20) | MIC (MRSA and MSSA [1]; MRSA #21) | MIC (MRSA and MSSA [1]; MRSA #22) | MIC (MRSA and MSSA [1]; MRSA #24) | MIC (MRSA and MSSA [1]; MSSA #1003) | MIC (MRSA and MSSA [1]; MSSA #1010) | MIC (MRSA and MSSA [1]; MSSA #1020) | MIC (MRSA and MSSA [1]; MSSA #1032) | MIC50 (MRSA and MSSA [1]; compound alone, over all strains of Table 3-1, read-out: MIC50)
62.5 µg/mL: MIC (MRSA and MSSA [1]; MRSA #2) | MIC (MRSA and MSSA [1]; MRSA #6) | MIC (MRSA and MSSA [1]; MRSA #9) | MIC (MRSA and MSSA [1]; MRSA #10) | MIC (MRSA and MSSA [1]; MRSA #17) | MIC (MRSA and MSSA [1]; MRSA #18) | MIC (MRSA and MSSA [1]; MSSA #1023) | MIC (MRSA and MSSA [1]; MSSA #1029)
0.258: FIC value ([2]; MRSA COL) | FIC value ([2]; MRSA Strain No. 5)

CCCCCCCCOC(=O)c1cc(O)c(O)c(O)c1 [Octyl gallate, n-octyl gallate]
most potent: antibacterial activity when used alone [2]
15.6 µg/mL: MIC (MRSA and MSSA [1]; MRSA #10)
31.3 µg/mL: MIC50 (MRSA and MSSA [1]) | MIC (MRSA and MSSA [1]; ATCC 6538 / MRSA / MSSA) | MIC (MRSA and MSSA [1]; COL) | MIC (MRSA and MSSA [1]; MRSA #1) | MIC (MRSA and MSSA [1]; MRSA #2) | MIC (MRSA and MSSA [1]; MRSA #3) | MIC (MRSA and MSSA [1]; MRSA #4) | MIC (MRSA and MSSA [1]; MRSA #5) | MIC (MRSA and MSSA [1]; MRSA #6) | MIC (MRSA and MSSA [1]; MRSA #7) | MIC (MRSA and MSSA [1]; MRSA #8) | MIC (MRSA and MSSA [1]; MRSA #9) | MIC (MRSA and MSSA [1]; MRSA #12) | MIC (MRSA and MSSA [1]; MRSA #16) | MIC (MRSA and MSSA [1]; MRSA #17) | MIC (MRSA and MSSA [1]; MRSA #18) | MIC (MRSA and MSSA [1]; MRSA #20) | MIC (MRSA and MSSA [1]; MRSA #21) | MIC (MRSA and MSSA [1]; MRSA #22) | MIC (MRSA and MSSA [1]; MRSA #24) | MIC (MRSA and MSSA [1]; MSSA #1003) | MIC (MRSA and MSSA [1]; MSSA #1010) | MIC (MRSA and MSSA [1]; MSSA #1020) | MIC (MRSA and MSSA [1]; MSSA #1023) | MIC (MRSA and MSSA [1]; MSSA #1029) | MIC (MRSA and MSSA [1]; MSSA #1032)
0.252: FIC value ([2]; MRSA COL)
0.75: FIC value ([2]; MRSA Strain No. 5)

Cc1onc(-c2ccccc2)c1C(=O)N[C@@H]1C(=O)N2[C@@H]1SC(C)(C)[C@@H]2C(=O)O [Oxacillin, oxacillin]
0.25 µg/mL: MIC (MRSA and MSSA [3]; MSSA 1003) | MIC (MRSA and MSSA [3]; MSSA 1010) | MIC (MRSA; MRSA / MSSA, MSSA 1003, oxacillin alone (—)) | MIC (MRSA; MRSA / MSSA, MSSA 1010, oxacillin alone (—))
0.13 µg/mL: MIC (MRSA and MSSA [3]; MSSA 1032) | MIC (MRSA; MRSA / MSSA, MSSA 1032, oxacillin alone (—)) | MIC (MRSA; MRSA)
128 µg/mL: MIC (MRSA and MSSA [3]; MRSA 3) | MIC (MRSA and MSSA [3]; MRSA 8) | MIC (MRSA and MSSA [3]; MRSA 10) | MIC (MRSA; MRSA, MRSA 3, oxacillin alone (—)) | MIC (MRSA; MRSA, MRSA 8, oxacillin alone (—)) | MIC (MRSA; MRSA, MRSA 10, oxacillin alone (—))
> 256 µg/mL: MIC (MRSA and MSSA [3]; MRSA 1) | MIC (MRSA and MSSA [3]; MRSA 6) | MIC (MRSA and MSSA [3]; MRSA 7) | MIC (MRSA and MSSA [3]; MRSA 12) | MIC (MRSA and MSSA [3]; MRSA 18) | MIC (MRSA; MRSA, MRSA 1, oxacillin alone (—)) | MIC (MRSA; MRSA, MRSA 6, oxacillin alone (—)) | MIC (MRSA; MRSA, MRSA 7, oxacillin alone (—)) | MIC (MRSA; MRSA, MRSA 12, oxacillin alone (—)) | MIC (MRSA; MRSA, MRSA 18, oxacillin alone (—))
256 µg/mL: MIC (MRSA and MSSA [3]; MRSA 2) | MIC (MRSA and MSSA [3]; MRSA 4) | MIC (MRSA and MSSA [3]; MRSA 5) | MIC (MRSA and MSSA [3]; MRSA 9) | MIC (MRSA and MSSA [3]; MRSA 16) | MIC (MRSA and MSSA [3]; MRSA 17) | MIC (MRSA and MSSA [3]; MRSA COL) | MIC (MRSA; MRSA, MRSA 2, oxacillin alone (—)) | MIC (MRSA; MRSA, MRSA 4, oxacillin alone (—)) | MIC (MRSA; MRSA, MRSA 5, oxacillin alone (—)) | MIC (MRSA; MRSA, MRSA 9, oxacillin alone (—)) | MIC (MRSA; MRSA, MRSA 16, oxacillin alone (—)) | MIC (MRSA; MRSA, MRSA 17, oxacillin alone (—)) | MIC (MRSA; MRSA, MRSA COL, oxacillin alone (—))
2 µg/mL: MIC (MRSA and MSSA [3]; MSSA 1023)
0.063 µg/mL: MIC (MRSA and MSSA [3]; ATCC 6538 / MRSA / MSSA, ATCC 6538) | MIC (MRSA; ATCC 6538 / MRSA, ATCC 6538, oxacillin alone (—))
< 0.5 µg/mL: MIC (MRSA and MSSA [3]; MRSA 24)
32 µg/mL: MIC (MRSA and MSSA [3]; MRSA 22) | MIC (MRSA; MRSA, MRSA 22, oxacillin alone (—))
64 µg/mL: MIC (MRSA and MSSA [3]; MRSA 20) | MIC (MRSA and MSSA [3]; MRSA 21) | MIC (MRSA; MRSA, MRSA 20, oxacillin alone (—)) | MIC (MRSA; MRSA, MRSA 21, oxacillin alone (—))
4 µg/mL: MIC (MRSA and MSSA [3]; MSSA 1029)
1 µg/mL: MIC (MRSA and MSSA [3]; MSSA 1020)

CCCCCCCCCCOC(=O)c1cc(O)c(O)c(O)c1 [Decyl gallate, n-decyl gallate]
0.258: FIC value ([2]; MRSA COL)
0.508: FIC value ([2]; MRSA Strain No. 5)
31.3 µg/mL: MIC (MRSA and MSSA [1]; MRSA #21) | MIC (MRSA and MSSA [1]; MRSA #22) | MIC (MRSA and MSSA [1]; MRSA #24)
most potent: antibacterial activity when used alone [2]
15.7 µg/mL: MIC50 (MRSA and MSSA [1]) | MIC (MRSA and MSSA [1]; ATCC 6538 / MRSA / MSSA) | MIC (MRSA and MSSA [1]; COL) | MIC (MRSA and MSSA [1]; MRSA #1) | MIC (MRSA and MSSA [1]; MRSA #2) | MIC (MRSA and MSSA [1]; MRSA #3) | MIC (MRSA and MSSA [1]; MRSA #4) | MIC (MRSA and MSSA [1]; MRSA #5) | MIC (MRSA and MSSA [1]; MRSA #6) | MIC (MRSA and MSSA [1]; MRSA #7) | MIC (MRSA and MSSA [1]; MRSA #8) | MIC (MRSA and MSSA [1]; MRSA #9) | MIC (MRSA and MSSA [1]; MRSA #10) | MIC (MRSA and MSSA [1]; MRSA #12) | MIC (MRSA and MSSA [1]; MRSA #16) | MIC (MRSA and MSSA [1]; MRSA #17) | MIC (MRSA and MSSA [1]; MRSA #18) | MIC (MRSA and MSSA [1]; MRSA #20) | MIC (MRSA and MSSA [1]; MRSA and MSSR) | MIC (MRSA and MSSA [1]; MSSA #1003) | MIC (MRSA and MSSA [1]; MSSA #1010) | MIC (MRSA and MSSA [1]; MSSA #1020) | MIC (MRSA and MSSA [1]; MSSA #1023) | MIC (MRSA and MSSA [1]; MSSA #1029) | MIC (MRSA and MSSA [1]; MSSA #1032)
